{"source": "patent EP4111863A1", "about": "“PHOSPHORUS USE EFFICIENCY ENHANCERS AS PLANT GROWTH PROMOTORS” (EuroChem Antwerpen, priority 2021, dated 2023)", "key": {"SPX1": {"system": "SPX1", "assay": "Chemical activity assessment: SPX1 phosphate starvation biomarker, pSPX1::GUS reporter line, GUS stained area", "assay_type": "in vivo, Arabidopsis thaliana", "procedure,_shortened": "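Arabidopsis Col-0 pSPX1::GUS seedlings grown in 96-well plates in low-phosphate liquid modMS with 1% sucrose, compounds at 50 µM final (1% DMSO). At 7 days after germination, GUS stained 1.5 h at 37 °C and blue signal area measured from scans. Wells with leaf area 50% or less of control were omitted.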"}, "Arabidopsis [1]": {"system": "Arabidopsis", "assay": "Arabidopsis vertical plate growth assay (primary root length, shoot biomass)", "assay_type": "in vivo, Arabidopsis thaliana", "conditions": "low phosphate", "method": "(§1) All Arabidopsis plant experiments were performed using the Arabidopsis thaliana Columbia-0 background. The Arabidopsis pSPX1::GUS line is described in the […] 2008, 54: 965-975. For rice, the cultivar Nipponbare was used. For maize, the cultivars DKC 2931 and B104 were used for regular pot experiments and sand-based pot experiments, respectively. For soybean, the cultivar Primus was used. […] The medium was solidified due to the addition of 0,6% Gelrite, unless stated otherwise. In case of vertical plates (root length and root hair measurements), the medium was supplied with 0.5% of sucrose and 1 µM (low phosphate, 1 µM KH2PO4, 9.9 mM KCI), 10 µM (low phosphate 10 µM KH2PO4, 9.9 mM KCI) or 1.25 mM KH2PO4 (high phosphate). Arabidopsis seeds were stratified for 2 days at 4 °C before germination. Seedlings were germinated in climate-controlled growth chambers at 22 °C under continuous light (100 µmol m^-2 s^-1). Husked rice seeds were germinated on wetted Whatman paper for 2 days at 37 °C and then transferred to Sterivent boxes or square Petri dishes with solid medium. Maize and soybean seeds were wetted 24 hours at room temperature prior to sowing in pots.\nArabidopsis primary root growth experiments were done on MS1/2 on vertical standing plates and roots were measured 11 days after germination. Roots were imaged using a flatbed scanner (EPSON Expression 11000XL) and root length was measured using ImageJ software. Arabidopsis shoot biomass was determined in 11 days after germination and growth on vertical standing plates with modMS. Arabidopsis leaf area was measured 21 days after germination on horizontal plates with modMS medium. Plates were scanned from the top using a flatbed scanner (EPSON Expression 11000XL) and the visible leaf area was measured using ImageJ software. Rice plate experiments used vertically standing Petri dishes containing MS1/2 medium (low phosphate - 0.001 mM) solidified with 0.8% washed agar. Plant height was measured 11 days after germination. Rice box experiments used modMS medium and a low phosphate condition of 0.025 mM phosphate. Plant height was measured 13 days after germination. All growth experiments occurred with 10 µM of compound and in low phosphate conditions, unless stated otherwise. Controls always received the same DMSO concentration."}, "Arabidopsis [2]": {"system": "Arabidopsis", "assay": "Arabidopsis horizontal plate growth assay (leaf area)", "assay_type": "in vivo, Arabidopsis thaliana", "conditions": "10 µM, 21 days after germination", "method": "(§2) All Arabidopsis plant experiments were performed using the Arabidopsis thaliana Columbia-0 background. The Arabidopsis pSPX1::GUS line is described in the […] 2008, 54: 965-975. For rice, the cultivar Nipponbare was used. For maize, the cultivars DKC 2931 and B104 were used for regular pot experiments and sand-based pot experiments, respectively. For soybean, the cultivar Primus was used. […] The medium was solidified due to the addition of 0,6% Gelrite, unless stated otherwise. […]\n(§3) Arabidopsis primary root growth experiments were done on MS1/2 on vertical standing plates and roots were measured 11 days after germination. Roots were imaged using a flatbed scanner (EPSON Expression 11000XL) and root length was measured using ImageJ software. Arabidopsis shoot biomass was determined in 11 days after germination and growth on vertical standing plates with modMS. Arabidopsis leaf area was measured 21 days after germination on horizontal plates with modMS medium. Plates were scanned from the top using a flatbed scanner (EPSON Expression 11000XL) and the visible leaf area was measured using ImageJ software. […] Plant height was measured 11 days after germination. […] Plant height was measured 13 days after germination. […]"}, "Arabidopsis [3]": {"system": "Arabidopsis", "assay": "Arabidopsis pot experiment", "assay_type": "in vivo, Arabidopsis thaliana", "conditions": "low phosphate, 10 µM, 4 weeks of growth", "method": "as §2\n(§4) Regular Arabidopsis and maize pot experiments used an unfertilized potting soil, which was supplemented at the start of the experiment with 50 ml H2O containing 0.25 g/l NH4NO3 and 0.44 g/l (high phosphate) or no (maize and soybean) or 0.11 g/l KH2PO (Arabidopsis) for low phosphate conditions. […] Compound concentration was 10 µM, calculated based on the total water content after watering, and was added at the start of the experiment (Arabidopsis) or once a week (maize). […] All parameters in the sand experiment, except the rate of leaf 4 (measured the first 4 days after emergence), were measured 19 days after sowing. Measurements in the pot experiments with potting soil were done after 4 weeks of growth, except for leaf 5, which was measured at 26 days. s. […]"}, "Rice [4]": {"system": "Rice", "assay": "Rice plate experiment", "assay_type": "in vivo", "conditions": "low phosphate 0.001 mM, 10 µM, 11 days after germination", "method": "as §2, §3"}, "Rice [5]": {"system": "Rice", "assay": "Rice box experiment", "assay_type": "in vivo", "conditions": "low phosphate 0.025 mM, 10 µM, 13 days after germination", "method": "as §2, §3"}, "Maize [6]": {"system": "Maize", "assay": "Sand-based maize pot experiment", "assay_type": "in vivo", "conditions": "low phosphate, 10 µM", "method": "as §1\nas §4, with “conditions. For the sand-based maize pot experiment, sand was supplemented with 50 ml H2O containing 0.25 g/l NH4NO3 and 0.38 g/l (high phosphate) or 0.02 g/l (low phosphate) KH2PO4.” for “conditions.”"}, "Maize [7]": {"system": "Maize", "assay": "Regular maize pot experiment (potting soil)", "assay_type": "in vivo", "conditions": "low phosphate, 10 µM once a week", "method": "as §1\nas §4, with “conditions. For the sand-based maize pot experiment, sand was supplemented with 50 ml H2O containing 0.25 g/l NH4NO3 and 0.38 g/l (high phosphate) or 0.02 g/l (low phosphate) KH2PO4.” for “conditions.”"}, "Maize [8]": {"system": "Maize", "assay": "Long term maize pot experiment, cultivar B104 (Phenovision platform)", "assay_type": "in vivo", "method": "(§5) Regular Arabidopsis and maize pot experiments used an unfertilized potting soil, which was supplemented at the start of the experiment with 50 ml H2O containing 0.25 g/l NH4NO3 and 0.44 g/l (high phosphate) or no (maize and soybean) or 0.11 g/l KH2PO (Arabidopsis) for low phosphate conditions. For the sand-based maize pot experiment, sand was supplemented with 50 ml H2O containing 0.25 g/l NH4NO3 and 0.38 g/l (high phosphate) or 0.02 g/l (low phosphate) KH2PO4. Potassium was balanced via addition of KCI. Compound concentration was 10 µM, calculated based on the total water content after watering, and was added at the start of the experiment (Arabidopsis) or once a week (maize). Indexed chlorophyll contents were received via a SPAD 502 Plus Chlorophyll Meter. All parameters in the sand experiment, except the rate of leaf 4 (measured the first 4 days after emergence), were measured 19 days after sowing. Measurements in the pot experiments with potting soil were done after 4 weeks of growth, except for leaf 5, which was measured at 26 days. s. The long term maize pot experiment was performed on the automated Phenovision platform (see Mertens et al, 2021, 20 https.l/doi.org/10.3389/fpls.2021.640914) with maize cultivars B104 and DKC2931. End point measurements occurred after 90 days (B104) or 70 days (DKC2931). Plants were grown on an unfertilized potting soil, which was fertilized bi-weekly with 50 mL modified Hoagland solution (2.5 x concentrated; but with 0.25 mM KH2PO4.)."}, "Maize [9]": {"system": "Maize", "assay": "Long term maize pot experiment, cultivar DKC2931 (Phenovision platform)", "assay_type": "in vivo", "conditions": "DKC2931, 70 days", "method": "as §5"}, "[10]": {"system": "Arabidopsis, rice, soybean and maize", "assay": "Growth experiments in different growing systems and plant species (summary statement)", "assay_type": "in vivo", "conditions": "result in words; plate, box or pot experiments", "method": "as §2, §3"}, "[11]": {"conditions": "Arabidopsis vertical plate, 10 µM, 11 days after germination"}, "[12]": {"conditions": "Maize pot long term, B104, 90 days"}}, "data": [{"smiles": "Cc1nc(N2CCOCC2)sc1CNCC1CN(C)CCO1", "note": "(stereo not shown) [Compound 4]", "values": [{"measurement": "GUS (SPX1) stained area normalized to the number of seeds (pixels)", "setting": "SPX1; Table 2, 50 µM compound, low phosphate modMS liquid medium, 7 days after germination, low phosphate control average of the same plate", "result": 9, "unit": "pixels"}, {"measurement": "suppression of the SPX1 biomarker (blue GUS staining)", "setting": "SPX1; result in words, 7 days of growth in low phosphate conditions", "result": "practically completely suppressed"}, {"measurement": "Primary root length (cm)", "setting": "Arabidopsis [1]; [11]", "result": 3.8, "unit": "cm"}, {"measurement": "Shoot biomass", "setting": "Arabidopsis [1]; [11]", "result": 26, "unit": "mg"}, {"measurement": "Primary root length (in % versus control)", "setting": "Arabidopsis [1]; Table 2, versus control without compound", "result": 211, "unit": "%"}, {"measurement": "primary root length relative to the control without compound", "setting": "Arabidopsis [1]; result in words, 10 µM, 11-day-old Arabidopsis plants", "result": "almost double"}, {"measurement": "Leaf area (mm^2)", "setting": "Arabidopsis [2]; low phosphate", "result": 91, "unit": "mm^2"}, {"measurement": "Leaf area (mm^2) in suboptimal phosphate conditions", "setting": "Arabidopsis [2]; suboptimal phosphate", "result": 151, "unit": "mm^2"}, {"measurement": "Rosette size (cm^2)", "setting": "Arabidopsis [3]", "result": 19, "unit": "cm^2"}, {"measurement": "Plant height (cm)", "setting": "Rice [4]", "result": 15.8, "unit": "cm"}, {"measurement": "Plant height (cm)", "setting": "Rice [5]", "result": 5.1, "unit": "cm"}, {"measurement": "Crown root number", "setting": "Maize [6]; 19 days after sowing", "result": 7}, {"measurement": "Plant height (cm)", "setting": "Maize [6]; 19 days after sowing", "result": 26, "unit": "cm"}, {"measurement": "Growth rate of leaf 4", "setting": "Maize [6]; first 4 days after emergence", "result": 2.3, "unit": "cm/day"}, {"measurement": "Plant height (cm)", "setting": "Maize [7]; 4 weeks of growth", "result": 62, "unit": "cm"}, {"measurement": "Shoot weight", "setting": "Maize [7]; 4 weeks of growth", "result": 4.4, "unit": "g"}, {"measurement": "Leaf 5 (cm)", "setting": "Maize [7]; 26 days", "result": 45, "unit": "cm"}, {"measurement": "Biomass", "setting": "Maize [8]; [12]", "result": 29, "unit": "g"}, {"measurement": "Plants with developed ears (%)", "setting": "Maize [8]; [12]", "result": 54, "unit": "%"}, {"measurement": "Sum of leaf length (cm)", "setting": "Maize [8]; [12]", "result": 5473, "unit": "cm"}, {"measurement": "ear formation", "setting": "Maize [8]; result in words, maize", "result": "stimulated"}, {"measurement": "Biomass", "setting": "Maize [9]", "result": 31, "unit": "g"}, {"measurement": "Plants with developed ears (%)", "setting": "Maize [9]", "result": 100, "unit": "%"}, {"measurement": "Sum of leaf length (cm)", "setting": "Maize [9]", "result": 3894, "unit": "cm"}, {"measurement": "effect on the shoot biomass, leaf area or plant height", "setting": "[10]", "result": "clear positive effect"}]}]}
